Values quoted from earlier work, collected in patent US20180136238A1 (priority 2016, published 2018).
Like-named read-outs stand apart in the source and are kept apart here.

How the values were obtained:
[1] = in vivo
[2] = blood, equilibrium of bicarbonate complex with protein bound uranyl ions

## [CH3][Hg][CH3] [dimethyl mercury]
[1]
  LD50 dose: 0.015 mg/kg

## [Hg+2].[S-2] [mercuric sulfide]
[1]
  LD50 dose: ~100,000.0 mg/kg

## [U] [uranium]
[2]
  uranium in blood bicarbonate-formed: 60%
  uranium in blood protein-formed: 40%
Other studies
  uranium in blood associated with red blood cells: 20%
  uranium in blood present in the inorganic compartment of plasma: 74%
  uranium in blood protein-formed: 32%

## arsenic
[1]
  LD50 dose: 14 mg/kg
